Experimental findings from patent US7232812B2, “Substituted azetidine compounds, their preparation and use as medicaments” (Laboratorios de Dr. Esteve S.A., priority 2004, dated 2007) are described below.

Format in all cases: in vivo
Experiment [1] has as its system rats. Briefly: Analgesia test in rats (carrageenan, thermal stimulus). As to conditions: Rattus norvegicus, oral route, 2 hours after administration, read-out: ED50 analgesic activity. The method, then:
III: Analgesia Test in Rats
The inventive compounds are tested for analgesic activity as described above is carried out as described in the publication of K. Hargreaves et al., Pain, 32, 77–88, (1988). The respective part of the description is hereby incorporated by reference and forms part of the disclosure.
The rats are transferred to the experimentation laboratory, where they remain in groups of 5, in makrolon cages with a barred floor to avoid coprophagy. At the beginning of the experiment, water and food were removed, and animals were adequately weighed and marked.
Each rat receives via subplantar injection 0.1 ml of sterile saline solution into the left hind paw, followed by 0.1 ml of a 2% (weight/volume) carrageenan suspension in sterile saline solution into the right hind paw.
Two hours after the subplantar injections of carrageenan and vehicle, each rat receives by oral route the compounds to be tested, suspended in 5% (weight/volume) gum arabic, administered at 10 ml per kg of body weight.
Two hours after the administration of the compounds to be tested, the values for analgesic activity are determined. To this purpose, the rats are transferred to the methacrylate chambers of an analgesimeter provided with a glass floor. […]

Experiment [2] has as its system rats. Kind of experiment: Test for activity against edema in rats (carrageenin paw). As to conditions: Rattus norvegicus, oral route. The method, then: IV. Test for Activity Against Edema in Rats
The test for activity against edema is carried out as described in the publication of Winter et al., Proc. Soc. Exp. Biol. Med. 111, 544–547, (1962). The respective part of the description is hereby incorporated by reference and forms part of the present disclosure.
At the beginning of each experimental session the rats are deprived of food, and kept in cages within groups of 5 animals, the cages being fitted with a grating on the floor to prevent coprophagy. After a period of 24 hours without food, the animals are marked in a suitable way, weighed and hydrated via oral administration of 30 ml/kg body weight of tap water. Half an hour after the hydratisation, the compounds to be tested are administered via oral route, in an amount of 10 ml/kg body weight as a suspension in gum arabic at 5% (weigh/volume). One hour after administration of the compounds the animals receive 0.1 ml of the inflammation causing agent (carrageenin 1% weight/volume, in sterile solution), injected via subplantar route into the right hind paw of the rats. Immediately after the carrageenin injection the volume of the injected paw is determined using a plethysmometer. The readings are expressed in ml. Readings of the volume of the paw are taken every hour after administration of the carrageenin for 7 hours.
In general terms: In the carrageenan paw model, swelling and tenderness develop within hours.

Experiment [3] deals with PGE2 production. Briefly: PGE2 production in rat gastric mucosa. The settings on record: rats, oral route, read-out: PGE2 gastric mucose ED50. Here is the method: (§1) VI: PGE2 Production in Rat Inflammatory Exudate and Gastric Mucosa
(§2) The PGE2 production in rat inflammatory exudate and gastric mucosa is carried out as described in the publication of O Tofanetti et al., “Effect of nimesulide on cyclo-oxygenase activity in rat gastric mucosa and inflammatory exudate”, Med Sci Res 17, 745–746 (1989). The respective part of the description is hereby incorporated by reference and forms part of the present disclosure.
(§3) For this text 6 male wistar rats (Interfauna-St Feliú de Codines, Barcelona) of approximately 200 g (each approximately 6 weeks of age) are used. The compounds to be tested are administered via oral route in gum Arabic at 5% (weight/volume) at a rate of 10 ml/kg.
(§4) One hour after administration of the compounds and under halothane anaesthesia, each rat is implanted subcutaneously in the interescapular area a 40×15×5 mm polyester sponge, soaked in a 0.5% suspension of carrageenan. […]
(§5) The rats's stomachs are removed and the gastric mucosa is detached from the underlying layers and by means of a 10 mm diameter die, mucosa samples from an area between the gastric corpus and pyloric antrum are taken. […] PGE2 concentrations from the inflammatory exudates and the gastric mucosa are determined by means of immunoassay reagents of Cayman Chemical kit, Ann Arbor, Mich., U.S.A. (Catalogue number: 514010) according to the manufacturer's instructions.

Experiment [4] relates to PGE2 production. Briefly: PGE2 production in rat inflammatory exudate. The settings on record: rats, oral route, carrageenan sponge exudate, read-out: PGE2 Inflam. exudade ED50. The method, then: as §1, §2, §3, §4, §5

In general, ED50 refers to the midpoint of the dose-response relation. Regarding `CC(C)(C)c1cc(C(=O)N2CC(O)C2)cc(C(C)(C)C)c1O` [Example 1, (3,5-di-tert-butyl-4-hydroxy-phenyl)-(3-hydroxy-azetidin-1-yl)-methanone], the ED50 in the experiment on rats [1] was determined as 0.4 mg/kg; in the experiment on rats [2], 3 mg/kg; with PGE2 production [3] it was 0.16 mg/kg; in the experiment with PGE2 production [4], 0.28 mg/kg.

Consider `CC1(O)CN(C(=O)c2cc(C(C)(C)C)c(O)c(C(C)(C)C)c2)C1` [Example 3, (3,5-di-tert-butyl-4-hydroxy-phenyl)-(3-hydroxy-3-methyl-azetidin-1-yl)-methanone], for which the ED50 in the experiment on rats [1] was determined as 0.14 mg/kg; with rats [2], 58 mg/kg; with PGE2 production [3], 7.3 mg/kg; with PGE2 production [4], 0.5 mg/kg.

With `CC(C)(C)c1cc(CN2CC(O)C2)cc(C(C)(C)C)c1O` [Example 17, 1-(3,5-di-tert-butyl-4-hydroxy-benzyl)-azetidin-3-ol], the ED50 in the experiment with rats [2] was 62 mg/kg.
